Experimental data published in patent publication US20160166604A1, “Thiol-Sensitive Positive Inotropes” (priority 2005, published 2016).
“Also recorded” adds a separate entry of the source.

Tests used:
RyR2 = target: T1, RyR2 (Mus musculus, UniProt E9Q401); experiment: RyR2 single channel recordings in planar lipid bilayers; type: biochemical; conditions: for open probability of the channel (Po): control 0.16±0.03
T1 construct: endogenous in cells; host or cells: freshly isolated adult mouse cardiac myocytes
Protocol: Recording of single RyR2 in lipid bilayers was performed as previously described. Jiang, M. T. et al., Circ. Res., 91, 1015-1022 (2002). Briefly, a phospholipid bilayer of PE:PS (1:1 dissolved in n-decane to 20 mg/ml) was formed across an aperture of ˜300 μm diameter in a delrin cup. The cis chamber (900 μl) was the voltage control side connected to the head stage of a 200 A Axopatch amplifier, while the trans chamber (800 μl) was held at virtual ground. Both chambers were initially filled with 50 mM cesium methanesulfonate and 10 mM Tris/Hepes pH 7.2. After bilayer formation, cesium methanesulfonate was raised to 300 mM in the cis side and 100 to 200 μg of mouse cardiac SR vesicles was added. After detection of channel openings, Cs^+ in the trans chamber was raised to 300 mM to collapse the chemical gradient. Single channel data were collected at steady voltages (−30 mV) for 2-5 min. Channel activity was recorded with a 16-bit VCR-based acquisition and storage system at a 10 kHz sampling rate. Signals were analyzed after filtering with an 8-pole Bessel filter at a sampling frequency of 1.5-2 kHz. Data acquisition and analysis were done with Axon Instruments software and hardware (pClamp v8.0, Digidata 200 AD/DA interface).
To further test whether HNO directly interacted with RyR2 proteins to increase open probability, purified reconstituted RyR2 were expressed in planar lipid bilayers and steady-state activity recorded with or without AS. The cis (cytosolic) solution contained 10 μM activating Ca^2+ and recordings were made at positive 30 mV holding potential. […] The probability of the channel being open (Po) increased from an average 0.16±0.03 without AS to 0.46±0.07 at 0.3 mM AS added to the cytoplasmic side of the channel (n=4). This was reversible upon addition of 2 mM DTT (0.11±0.04). These findings support direct HNO-RyR2 interaction likely via a reversible reaction with thiol groups in the protein.

[1] = tested on: isolated rat ventricular myocytes; experiment: Whole Ca2+ transients and SR Ca2+ load in isolated rat ventricular myocytes (Indo-1, caffeine); type: cell-based
Protocol: Isolation of ventricular myocytes from rats was carried out as previously described. Bassani, R A. et al., J. Mol. Cell Cardiol., 26, 1335-1347 (1994). The enzyme used for tissue dissociation was Liberase Blendzyme 3 or 4 (13-20 Wuensch Units/Heart) sometimes supplemented with 5-10 Units of Dispase II (both Roche Diagnostics, Indianapolis, Ind.). When the heart became flaccid, left ventricular tissue was cut into small pieces for further incubation (5 to 10 min at 37° C.) in enzyme solution. The tissue was dispersed, filtered, and suspensions rinsed several times before used for experiments. Isolated rat ventricular myocytes were then plated onto superfusion chambers, with the glass bottoms treated with natural mouse laminin (Invitrogen, Carlsbad, Calif.). The standard Tyrode's solution used in all experiments contained (in mM): NaCl 140, KCl 4, MgCl2 1, glucose 10, HEPES 5, and CaCl2 1, pH 7.4. Myocytes were loaded with 6 μM Indo-1/AM for 25 min and subsequently perfused for at least 30 min to allow for deesterfication of the dye. Some cells were pretreated with 0.5 mM AS (in some Caffeine experiments with 1 mM), washed and then loaded with Indo-1/AM. Concentration of the AS stock solution was verified by absorbance at 250 nm. All experiments were done at room temperature (23-25° C.) using field stimulation. Ca^2+-transients were recorded with Clampex 8.0 and data analyzed with Clampfit.
To further explore potential HNO targets, calcium cycling in adult mouse and rat cardiac myocytes was examined. Cells were first exposed to AS for 5-10 min, then washed and loaded with Indo-1 or Fluo-4 for 20 min. Pretreatment with AS was carried out because the drug reacted with the Ca^2+ indicators (both Fluo-4 and Indo-1) and altered their fluorescent properties. In mice, the calcium transient amplitude assessed by confocal line scan imaging increased by ˜40% over baseline with 0.5 mM AS, (n=27, p<0.001) (FIG. 3A-FIG. 3C), time to peak transient was prolonged (FIG. 3D) while the decay time shortened (FIG. 3E). Basal fluorescence (F0) was unchanged by AS pretreatment (FIG. 3F). Similar results were obtained in rat myocytes (using Indo-1) for Ca^2+ transient amplitude (FIG. 3G and FIG. 3H) and decay time (FIG. 3I). The increase in amplitude was not accompanied by an increase in diastolic Ca^2+ level (ratio 405/485=0.239±0.006 (Con) vs. 0.243±0.008 (AS); n.s.; see also FIG. 3A, FIG. 3F and FIG. 3G). Rapid sustained caffeine (10 mM) application abruptly releases all SR Ca^2+ and subsequent [Ca^2+]i decline is mediated mainly via Na/Ca exchange.

T1 sequence (E9Q401 whole entry): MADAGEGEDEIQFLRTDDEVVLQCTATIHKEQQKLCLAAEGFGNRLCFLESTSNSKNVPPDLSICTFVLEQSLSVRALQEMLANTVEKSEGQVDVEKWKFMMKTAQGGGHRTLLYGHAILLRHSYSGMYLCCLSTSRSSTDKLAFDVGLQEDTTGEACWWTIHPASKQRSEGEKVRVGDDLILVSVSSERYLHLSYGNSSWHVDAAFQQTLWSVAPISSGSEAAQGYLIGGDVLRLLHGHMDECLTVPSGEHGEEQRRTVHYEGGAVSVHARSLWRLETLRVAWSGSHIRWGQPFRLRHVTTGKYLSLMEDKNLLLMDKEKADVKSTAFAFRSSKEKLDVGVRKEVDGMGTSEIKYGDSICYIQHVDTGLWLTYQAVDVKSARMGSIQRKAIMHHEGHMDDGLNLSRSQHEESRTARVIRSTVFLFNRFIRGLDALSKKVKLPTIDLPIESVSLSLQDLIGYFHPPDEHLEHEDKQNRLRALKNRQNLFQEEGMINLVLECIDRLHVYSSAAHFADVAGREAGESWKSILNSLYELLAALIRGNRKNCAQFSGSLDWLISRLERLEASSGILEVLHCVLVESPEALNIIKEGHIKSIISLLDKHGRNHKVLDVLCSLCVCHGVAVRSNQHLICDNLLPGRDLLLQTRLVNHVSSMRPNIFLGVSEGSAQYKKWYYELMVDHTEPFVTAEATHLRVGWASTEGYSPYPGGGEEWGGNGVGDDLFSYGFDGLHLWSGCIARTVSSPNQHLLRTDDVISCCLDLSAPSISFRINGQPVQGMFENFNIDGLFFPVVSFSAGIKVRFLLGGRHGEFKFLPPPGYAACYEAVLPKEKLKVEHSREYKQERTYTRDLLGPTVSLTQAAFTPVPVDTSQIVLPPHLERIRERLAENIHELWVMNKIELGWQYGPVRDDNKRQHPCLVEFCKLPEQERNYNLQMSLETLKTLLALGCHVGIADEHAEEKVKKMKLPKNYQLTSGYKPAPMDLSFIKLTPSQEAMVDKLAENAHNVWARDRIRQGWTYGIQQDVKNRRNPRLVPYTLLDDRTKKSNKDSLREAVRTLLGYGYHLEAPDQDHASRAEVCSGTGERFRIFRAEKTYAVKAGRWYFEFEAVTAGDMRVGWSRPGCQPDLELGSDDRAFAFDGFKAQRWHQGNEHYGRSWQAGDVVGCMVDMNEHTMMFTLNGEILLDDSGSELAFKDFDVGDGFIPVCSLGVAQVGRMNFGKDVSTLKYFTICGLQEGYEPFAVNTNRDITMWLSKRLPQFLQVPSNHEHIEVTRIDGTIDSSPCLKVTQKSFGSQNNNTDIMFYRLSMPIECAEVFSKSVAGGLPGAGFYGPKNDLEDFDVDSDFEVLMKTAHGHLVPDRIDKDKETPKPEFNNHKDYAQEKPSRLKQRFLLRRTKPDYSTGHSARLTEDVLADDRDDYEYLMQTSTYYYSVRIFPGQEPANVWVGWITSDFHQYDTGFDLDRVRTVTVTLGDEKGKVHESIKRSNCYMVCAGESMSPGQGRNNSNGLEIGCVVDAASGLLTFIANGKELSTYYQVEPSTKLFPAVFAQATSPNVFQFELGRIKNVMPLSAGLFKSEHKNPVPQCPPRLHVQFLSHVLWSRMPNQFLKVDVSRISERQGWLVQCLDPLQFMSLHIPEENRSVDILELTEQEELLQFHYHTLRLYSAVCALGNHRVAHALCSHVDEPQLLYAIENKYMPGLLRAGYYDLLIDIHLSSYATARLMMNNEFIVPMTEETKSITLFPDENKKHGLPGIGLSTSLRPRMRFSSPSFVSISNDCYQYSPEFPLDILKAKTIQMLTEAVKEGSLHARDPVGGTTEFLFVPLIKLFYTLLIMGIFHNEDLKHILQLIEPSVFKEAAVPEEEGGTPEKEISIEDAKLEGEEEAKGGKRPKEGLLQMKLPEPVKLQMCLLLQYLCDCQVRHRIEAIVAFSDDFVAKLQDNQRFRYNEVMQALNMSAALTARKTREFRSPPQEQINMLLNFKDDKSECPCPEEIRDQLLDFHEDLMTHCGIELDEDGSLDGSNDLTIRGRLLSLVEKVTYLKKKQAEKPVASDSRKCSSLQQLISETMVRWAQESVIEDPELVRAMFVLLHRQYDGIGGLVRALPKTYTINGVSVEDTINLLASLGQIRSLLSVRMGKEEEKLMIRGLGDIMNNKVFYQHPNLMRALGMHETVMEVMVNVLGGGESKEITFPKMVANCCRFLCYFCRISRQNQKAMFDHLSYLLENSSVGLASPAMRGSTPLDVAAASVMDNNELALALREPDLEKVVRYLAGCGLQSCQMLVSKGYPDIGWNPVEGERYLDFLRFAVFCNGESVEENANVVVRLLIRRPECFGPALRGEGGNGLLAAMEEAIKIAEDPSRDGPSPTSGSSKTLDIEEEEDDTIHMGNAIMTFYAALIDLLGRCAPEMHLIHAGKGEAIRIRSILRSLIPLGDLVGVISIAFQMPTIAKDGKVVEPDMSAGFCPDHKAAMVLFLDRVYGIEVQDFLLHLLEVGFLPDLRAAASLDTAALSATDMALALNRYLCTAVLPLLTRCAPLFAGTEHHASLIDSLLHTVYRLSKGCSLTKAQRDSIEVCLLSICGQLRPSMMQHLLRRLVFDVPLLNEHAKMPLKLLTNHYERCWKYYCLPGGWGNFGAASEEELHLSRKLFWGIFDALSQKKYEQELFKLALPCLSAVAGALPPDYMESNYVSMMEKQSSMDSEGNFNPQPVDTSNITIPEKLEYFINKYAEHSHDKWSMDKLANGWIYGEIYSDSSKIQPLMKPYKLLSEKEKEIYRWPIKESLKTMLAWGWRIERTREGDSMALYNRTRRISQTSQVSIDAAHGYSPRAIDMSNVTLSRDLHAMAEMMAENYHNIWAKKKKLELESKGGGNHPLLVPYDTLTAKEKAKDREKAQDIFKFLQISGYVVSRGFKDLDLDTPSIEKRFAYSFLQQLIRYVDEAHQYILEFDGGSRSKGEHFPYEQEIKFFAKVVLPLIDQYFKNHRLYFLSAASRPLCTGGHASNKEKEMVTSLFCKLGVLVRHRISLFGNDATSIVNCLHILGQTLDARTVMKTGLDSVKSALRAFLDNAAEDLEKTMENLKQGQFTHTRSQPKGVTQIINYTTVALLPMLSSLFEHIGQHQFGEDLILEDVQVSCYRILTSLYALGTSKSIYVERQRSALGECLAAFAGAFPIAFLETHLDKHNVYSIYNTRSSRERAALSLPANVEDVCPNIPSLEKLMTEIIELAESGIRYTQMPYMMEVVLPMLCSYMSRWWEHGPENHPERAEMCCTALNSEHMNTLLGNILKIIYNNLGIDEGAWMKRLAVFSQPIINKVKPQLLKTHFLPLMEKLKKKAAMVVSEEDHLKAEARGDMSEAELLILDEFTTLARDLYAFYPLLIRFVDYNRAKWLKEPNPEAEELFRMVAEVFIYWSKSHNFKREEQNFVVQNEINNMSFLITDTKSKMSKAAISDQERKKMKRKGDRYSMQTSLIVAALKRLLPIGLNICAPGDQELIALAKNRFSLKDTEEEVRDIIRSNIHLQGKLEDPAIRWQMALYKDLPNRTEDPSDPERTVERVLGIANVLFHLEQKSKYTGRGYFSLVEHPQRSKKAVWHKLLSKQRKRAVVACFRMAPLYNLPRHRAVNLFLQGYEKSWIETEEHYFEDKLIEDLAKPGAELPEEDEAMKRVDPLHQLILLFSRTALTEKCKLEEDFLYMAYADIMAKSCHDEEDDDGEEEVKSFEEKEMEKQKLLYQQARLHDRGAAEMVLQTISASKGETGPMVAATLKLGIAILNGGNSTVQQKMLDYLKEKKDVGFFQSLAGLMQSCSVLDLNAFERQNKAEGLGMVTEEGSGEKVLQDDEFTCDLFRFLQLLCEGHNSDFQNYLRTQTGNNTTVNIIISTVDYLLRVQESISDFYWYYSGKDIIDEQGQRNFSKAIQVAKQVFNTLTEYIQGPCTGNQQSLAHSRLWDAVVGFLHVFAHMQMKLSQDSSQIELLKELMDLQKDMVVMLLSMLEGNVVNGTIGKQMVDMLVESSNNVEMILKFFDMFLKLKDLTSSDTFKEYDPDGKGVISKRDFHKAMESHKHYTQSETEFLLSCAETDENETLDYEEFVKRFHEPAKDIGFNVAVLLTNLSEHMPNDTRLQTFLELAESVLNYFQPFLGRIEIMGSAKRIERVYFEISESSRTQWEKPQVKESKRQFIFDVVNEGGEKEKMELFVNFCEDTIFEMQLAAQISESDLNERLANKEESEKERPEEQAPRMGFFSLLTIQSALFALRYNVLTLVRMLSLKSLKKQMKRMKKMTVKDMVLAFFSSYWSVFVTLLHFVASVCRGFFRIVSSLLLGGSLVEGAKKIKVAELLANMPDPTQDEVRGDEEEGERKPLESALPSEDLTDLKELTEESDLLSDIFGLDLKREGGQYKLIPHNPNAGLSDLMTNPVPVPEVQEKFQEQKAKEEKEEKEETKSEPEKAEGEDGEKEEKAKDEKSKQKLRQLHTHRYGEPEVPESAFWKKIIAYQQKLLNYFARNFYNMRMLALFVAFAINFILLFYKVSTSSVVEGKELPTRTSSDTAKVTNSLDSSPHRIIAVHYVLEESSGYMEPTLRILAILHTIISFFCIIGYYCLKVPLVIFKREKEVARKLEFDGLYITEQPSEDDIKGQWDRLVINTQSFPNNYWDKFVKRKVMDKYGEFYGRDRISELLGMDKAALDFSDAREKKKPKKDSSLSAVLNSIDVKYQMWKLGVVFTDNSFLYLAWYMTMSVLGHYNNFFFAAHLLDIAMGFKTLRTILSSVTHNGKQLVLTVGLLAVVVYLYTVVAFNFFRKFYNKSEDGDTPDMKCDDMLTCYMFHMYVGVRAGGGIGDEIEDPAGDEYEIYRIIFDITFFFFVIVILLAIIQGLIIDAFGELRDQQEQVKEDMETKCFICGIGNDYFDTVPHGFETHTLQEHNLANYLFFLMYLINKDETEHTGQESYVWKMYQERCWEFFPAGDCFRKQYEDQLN

- open probability of the channel (Po) (RyR2; 0.1 mM AS, cis side): 0.25±0.05
- open probability of the channel (Po) (RyR2; 0.3 mM AS, cytoplasmic side): 0.46±0.07
- open probability of the channel (Po) (RyR2; 1.0 mM AS, cis side): 0.69±0.11
- Po of AS-activated channels after DTT (RyR2; 2 mM DTT added to cis side): 0.11±0.04
- unitary channel conductance (RyR2; AS 0.1 to 1 mM): without altering
SMILES: [Na+].[Na+].[O-][N+]([O-])=NO [AS, Angeli's salt]
- fractional SR Ca2+ release ([1]; AS pretreated): enhanced
- relative contribution of NCX to Ca2+ removal ([1]; AS pretreated cells, Con 12.4%): 8.7%
- relative contribution of the SR to Ca2+ removal ([1]; AS pretreated cells, Con 87.6%): 91.3%
- diastolic Ca2+ level (ratio 405/485) ([1]; AS pretreated rat myocytes, Con 0.239±0.006, n.s.): 0.243±0.008
- SR Ca2+ content (total SR load, caffeine) ([1]; AS pretreated, caffeine 10 mM): unchanged; also recorded: did not alter
- τ of caffeine-induced Ca2+ transient decline (Na/Ca exchange function) ([1]; caffeine 10 mM, printed 2.0±0.4 vs. 2.2±0.3, order Con vs. AS assumed): 2.2 ± 0.3 s
